The record followed here is article PMC12564498, “Benzo[d]imidazole–Naphthalen-Arylmethanone Regioisomers as CB1 Ligands: Evaluation of Agonism via an Indirect Cytotoxicity-Based Approach” (International Journal of Molecular Sciences, 2025).

Read-outs that look alike come from different tables or passages of the source.

The target of experiment [1] is T1, human recombinant cannabinoid CB2 receptor (Homo sapiens, UniProt P34972).
T1 construct: purchased Perkin Elmer Inc., Singapore Pte; Ltd. RBXCB2M400UA; host or cells: HEK293-EBNA cell membranes (overexpressing)
Put plainly: CB2 radioligand displacement binding assay ([3H]CP-55940). The following applies: for inhibition at 10 µM: displacement of [3H]CP-55940 at 10 μM compound, read-out: CB2 Max Tested µM (% Displacement); for Ki: Cheng–Prusoff from IC50, [3H]CP-55940 0.5 nM; for Ki / IC50: mean ± SEM n = 3; for IC50: [3H]CP-55940 0.5 nM, hCB2 HEK293-EBNA membranes.

In experiment [2] the target is T2, human cannabinoid CB1 receptor (Homo sapiens, UniProt P21554).
T2 construct: purchased Perkin Elmer Inc., Singapore Pte; Ltd. RBHCB1M400UA; host or cells: HEK293-EBNA cell membranes (overexpressing)
Put plainly: biochemical. The format is binding. The following applies: for inhibition at 10 µM: displacement of [3H]CP-55940 at 10 μM compound, read-out: CB1 Max Tested µM (% Displacement). (In general: In a radioligand displacement assay an active substance lowers the binding of a labelled ligand.)

Setting [3] is: Cheng–Prusoff from IC50, [3H]CP-55940 0.5 nM, mean ± SEM n = 3, read-out: CB1 Ki.
Setting [4] is: [3H]CP-55940 0.5 nM, hCB1 HEK293-EBNA membranes, mean ± SEM n = 3, read-out: CB1 IC50.

A word on the Ki: it is the dissociation constant of the complex between target and ligand, obtained from inhibition or displacement. Broadly, the IC50 is the concentration that gives 50% inhibition.

T1 sequence (P34972 whole entry): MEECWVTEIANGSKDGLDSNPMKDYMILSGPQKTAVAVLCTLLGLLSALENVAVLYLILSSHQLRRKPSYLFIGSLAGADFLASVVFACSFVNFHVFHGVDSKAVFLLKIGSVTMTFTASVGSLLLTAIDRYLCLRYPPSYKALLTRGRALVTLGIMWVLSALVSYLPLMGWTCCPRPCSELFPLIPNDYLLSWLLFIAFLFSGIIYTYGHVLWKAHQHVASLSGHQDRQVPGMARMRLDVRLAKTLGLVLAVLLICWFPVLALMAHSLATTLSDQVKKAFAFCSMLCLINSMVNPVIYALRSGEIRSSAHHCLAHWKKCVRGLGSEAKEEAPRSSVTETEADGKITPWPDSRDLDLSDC
T2 sequence (P21554 whole entry): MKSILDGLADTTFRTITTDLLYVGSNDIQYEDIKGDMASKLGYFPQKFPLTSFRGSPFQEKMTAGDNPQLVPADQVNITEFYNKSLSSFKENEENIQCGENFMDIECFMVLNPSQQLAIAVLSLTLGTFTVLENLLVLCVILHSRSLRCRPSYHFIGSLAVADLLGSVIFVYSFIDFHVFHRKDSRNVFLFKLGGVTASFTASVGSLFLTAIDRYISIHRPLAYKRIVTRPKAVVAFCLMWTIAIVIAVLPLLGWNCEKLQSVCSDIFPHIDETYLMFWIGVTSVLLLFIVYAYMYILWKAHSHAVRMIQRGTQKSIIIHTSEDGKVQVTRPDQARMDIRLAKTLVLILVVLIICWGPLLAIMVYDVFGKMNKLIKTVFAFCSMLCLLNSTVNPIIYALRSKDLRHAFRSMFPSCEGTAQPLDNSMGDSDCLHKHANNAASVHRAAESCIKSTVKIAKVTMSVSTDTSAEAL

Regarding `O=C(c1cccc2ccccc12)n1c(-c2cccnc2)nc2ccc(Cl)cc21` [4a′], the inhibition at 10 µM in experiment [1] stood at 52%; in experiment [2], 20%. Moreover, the Ki in experiment [2] (setting [3]) is more than 10 µM. In addition, the IC50 in experiment [2] (setting [4]) was more than 10 µM.

On to `Cc1cc(-c2nc3ccc(Cl)cc3n2C(=O)c2cccc3ccccc23)no1` [4c′], for which the Ki in experiment [1] and in experiment [2] (setting [3]) was more than 10 µM throughout. Besides, the IC50 in experiment [1] and in experiment [2] (setting [4]) was more than 10 µM each time. The inhibition at 10 µM stood at 29% in experiment [1] and 44% in experiment [2].

As to `O=C(c1cccc2ccccc12)n1c(-c2ccon2)nc2ccc(Cl)cc21` [4d′], in experiment [1], the Ki was more than 10 µM, the IC50 was more than 10 µM and the inhibition at 10 µM was determined as 42%. In experiment [2], the IC50 is more than 10 µM and the inhibition at 10 µM worked out at 47%. This compound had a Ki in experiment [2] (CB1 Ki) of more than 10 µM.

As for `Cc1ccc(-c2nc3ccc(Cl)cc3n2C(=O)c2cccc3ccccc23)o1` [4e′], the Ki in experiment [1] and in experiment [2] (setting [3]) was more than 10 µM in each case. The IC50 in experiment [1] and in experiment [2] (setting [4]) was more than 10 µM each time. In addition, the inhibition at 10 µM worked out at 52.8% in experiment [1] and 38% in experiment [2].

In the case of `O=C(c1cccc2ccccc12)n1c(-c2cccnc2)nc2ccc(F)cc21` [5a′, (6-fluoro-2-(pyridin-3-yl)-1H-benzo[d]imidazol-1-yl)(naphthalen-1-yl)methanone], the inhibition constant (Ki) in experiment [1] and in experiment [2] (setting [3]) was more than 10 µM each time. In addition, the IC50 in experiment [1] and in experiment [2] (setting [4]) was more than 10 µM in each case. The results for the inhibition at 10 µM in experiment [1] and in experiment [2] were 16% and 9.5%, respectively.

Regarding `COc1cccc(-c2nc3ccc(F)cc3n2C(=O)c2cccc3ccccc23)c1` [5b′, (6-fluoro-2-(3-methoxyphenyl)-1H-benzo[d]imidazol-1-yl)(naphthalen-1-yl)methanone], the Ki in experiment [1] and in experiment [2] (setting [3]) was more than 10 µM each time. Also, the half-maximal inhibitory concentration (IC50) in experiment [1] and in experiment [2] (setting [4]) was more than 10 µM each time. In addition, the inhibition at 10 µM in experiment [1] was 53.5%; in experiment [2], 47%.

As for `Cc1cc(-c2nc3ccc(F)cc3n2C(=O)c2cccc3ccccc23)no1` [5c′, (6-fluoro-2-(5-methylisoxazol-3-yl)-1H-benzo[d]imidazol-1-yl)(naphthalen-1-yl)methanone], the Ki in experiment [1] and in experiment [2] (setting [3]) was more than 10 µM throughout. The IC50 in experiment [1] and in experiment [2] (setting [4]) was more than 10 µM each time. Further, the inhibition at 10 µM in experiment [1] amounted to 29%; in experiment [2] it was 37%.

On to `O=C(c1cccc2ccccc12)n1c(-c2ccon2)nc2ccc(F)cc21` [5d′, (6-fluoro-2-(isoxazol-3-yl)-1H-benzo[d]imidazol-1-yl)(naphthalen-1-yl)methanone], for which the Ki in experiment [1] and in experiment [2] (setting [3]) was more than 10 µM throughout. Moreover, the IC50 in experiment [1] and in experiment [2] (setting [4]) was more than 10 µM each time. The figures for the inhibition at 10 µM in experiment [1] and in experiment [2] were 26% and 34%, respectively.

For `Cc1ccc(-c2nc3ccc(F)cc3n2C(=O)c2cccc3ccccc23)o1` [5e′, (6-fluoro-2-(5-methylfuran-2-yl)-1H-benzo[d]imidazol-1-yl)(naphthalen-1-yl)methanone], the Ki in experiment [1] and in experiment [2] (setting [3]) was more than 10 µM in each case. The IC50 in experiment [1] and in experiment [2] (setting [4]) was more than 10 µM each time. Besides, the inhibition at 10 µM in experiment [1] worked out at 52%; in experiment [2] it was 43%.

On to `O=C(c1cccc2ccccc12)n1c(-c2cccnc2)nc2cc(Cl)ccc21` [Compound 4a], for which the Ki in experiment [1] was 6.6 µM; in experiment [2] (setting [3]), more than 10 µM. Also, the inhibition at 10 µM in experiment [1] turned out to be 35%; in experiment [2] it was 36%. Further, in experiment [2] (setting [4]), the IC50 was more than 10 µM.

As for `COc1cccc(-c2nc3cc(Cl)ccc3n2C(=O)c2cccc3ccccc23)c1` [Compound 4b], the Ki in experiment [1] and in experiment [2] (setting [3]) was more than 10 µM each time. Further, the IC50 in experiment [1] and in experiment [2] (setting [4]) was more than 10 µM in each case. For the same compound, the inhibition at 10 µM in experiment [1] is 48%; in experiment [2], 39%.

With `Cc1cc(-c2nc3cc(Cl)ccc3n2C(=O)c2cccc3ccccc23)no1` [Compound 4c], the Ki in experiment [1] and in experiment [2] (setting [3]) was more than 10 µM in each case. The IC50 in experiment [1] and in experiment [2] (setting [4]) was more than 10 µM in each case. Besides, the values for the inhibition at 10 µM in experiment [1] and in experiment [2] were 30% and 38%, respectively.

For `Cc1ccc(-c2nc3cc(Cl)ccc3n2C(=O)c2cccc3ccccc23)o1` [Compound 4e], the Ki in experiment [1] and in experiment [2] (setting [3]) was more than 10 µM in each case. Besides, the IC50 in experiment [1] and in experiment [2] (setting [4]) was more than 10 µM each time. Moreover, the inhibition at 10 µM in experiment [1] stood at 29%; in experiment [2] it was 30%.

Regarding `O=C(c1cccc2ccccc12)n1c(-c2ccco2)nc2cc(Cl)ccc21` [Compound 4f], the Ki in experiment [1] and in experiment [2] (setting [3]) was more than 10 µM each time. The IC50 in experiment [1] and in experiment [2] (setting [4]) was more than 10 µM each time. Besides, the inhibition at 10 µM was 46.5% in experiment [1] and more than 50% in experiment [2].

On to `O=C(c1cccc2ccccc12)n1c(-c2cccnc2)nc2cc(F)ccc21` [Compound 5a], for which the Ki in experiment [1] and in experiment [2] (setting [3]) was more than 10 µM in each case. Besides, the IC50 in experiment [1] and in experiment [2] (setting [4]) was more than 10 µM throughout. Further, the inhibition at 10 µM stood at 43% in experiment [1] and 41% in experiment [2].

For `Cc1cc(-c2nc3cc(F)ccc3n2C(=O)c2cccc3ccccc23)no1` [Compound 5c, (5-fluoro-2-(5-methylisoxazol-3-yl)-1H-benzo[d]imidazol-1-yl)(naphthalen-1-yl)methanone], the Ki in experiment [1] and in experiment [2] (setting [3]) was more than 10 µM in each case. The IC50 in experiment [1] and in experiment [2] (setting [4]) was more than 10 µM each time. Besides, the values for the inhibition at 10 µM in experiment [1] and in experiment [2] were 24% and 54.5%, respectively.

As for `O=C(c1cccc2ccccc12)n1c(-c2ccon2)nc2cc(F)ccc21` [Compound 5d, (5-fluoro-2-(isoxazol-3-yl)-1H-benzo[d]imidazol-1-yl)(naphthalen-1-yl)methanone], the Ki in experiment [1] and in experiment [2] (setting [3]) was more than 10 µM throughout. Besides, the IC50 in experiment [1] and in experiment [2] (setting [4]) was more than 10 µM each time. The figures for the inhibition at 10 µM in experiment [1] and in experiment [2] were 51% and 54%, respectively.
